Consider five compounds from patent US20240246916A1, “7-NITRO-8-HYDROXYQUINOLINE DERIVATIVES, PREPARATION METHOD THEREFORE AND MEDICAL USE THEREOF” (Jiangsu Yahong Meditech Co., Ltd., priority 2021, published 2024).

Common to all, as to assay type: cell-based
Assay [1] deals with Endothelial cell line HUVEC. The experiment in a line: Inhibitory activity on cells, CellTiter-Glo viability, HUVEC. As to conditions: Homo sapiens, 72 hours treatment. The method, boiled down: (§1)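 HUVEC seeded at 2000, UM-UC-3 and RM-1 at 3000, LNCaP at 5000 cells/well, each in its own medium, 24 h before dosing. Compounds: 8-point 2.5-fold dilutions from 100 μmol, 72 h at 37 °C, 5% CO2. CellTiter-Glo luminescence; IC50 from growth-inhibition curves.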

In assay [2] the test system is Bladder cancer cell line UM-UC-3. The experiment in a line: Inhibitory activity on cancer cells, CellTiter-Glo viability, UM-UC-3. The note with it: Homo sapiens, UMUC3, 72 hours treatment. In a few lines:
as §1

For assay [3], the system named is Prostate cancer cell line LNcaP. The experiment in a line: Inhibitory activity on cancer cells, CellTiter-Glo viability, LNcaP. The note with it: Homo sapiens, 72 hours treatment. In a few lines:
as §1

The subject of assay [4] is Mouse prostate cancer cell line RM1. In words: Inhibitory activity on cancer cells, CellTiter-Glo viability, RM1. As to conditions: 72 hours treatment. The procedure: HUVEC (purchased from Allcells Biological Technology (Shanghai) Co., Ltd.); UM-UC-3 (ATCC); LNCaP (ATCC); RM-1 (purchased from Nanjing Cobioer Biosciences Co., Ltd.) (1) On the first day, the cells were seeded in a 96-well plate, and the previous medium was poured off. 5 mL of DPBS was added to wash the cells, and then removed by a pipette and discarded. Then, 1 mL of trypsin (0.25%) was added, and the plate was placed in a cell culture incubator at 37 °C, 5% CO2 for digestion, and taken out after about 2 to 5 minutes. New corresponding medium was added, and pipetted to resuspend the cells evenly, and the cells were then counted with an automated cell counter. Regarding HUVEC, the medium used was endothelial cell complete medium; regarding UM-UC-3, the medium used was 89 v % EMEM+10 v % fetal bovine serum+1 v % penicillin-streptomycin double anti-body; regarding LNcaP, the medium used was 89 v % RPM11640+10 v % fetal bovine serum+1 v % penicillin-streptomycin double anti-body; and regarding RM1, the medium used was 89 v % DMEM+10 v % fetal bovine serum+1 v % penicillin-streptomycin double anti-body. (2) HUVEC cells were seeded in columns 1 to 11 of a 96-well plate (Corning, Cat. No. 3610) at a density of 2000 cells per well in 100 μL of medium, and the medium free of cell was added to the wells of column 12. The other three types of cells were also seeded, wherein UM-UC-3 and RM-1 cells were seeded at a density of 3000 cells per well, and LNCap cells were seeded at a density of 5000 cells per well. Then, the plate was placed in an incubator at 37° C., 5% CO2 for 24 hours. (3) On the second day, the compounds of the present invention and the reference drug nitroxoline (obtained according to the preparation method disclosed in the prior art) were diluted in gradient (2.5 folds, started at 100 μmol) to obtain 8 dose points (there were a total of 8 columns of wells; the first column of wells had the highest concentration, the concentration decreased in turn, and the last column of wells had the lowest concentration). 10 μL of the compound diluted in gradient was added to the 100 μL of cells in column 1 to column 10 with an 8-channel pipette. 10 μL of the corresponding medium containing 0.33 v % DMSO was added to column 11 and column 12. The plate was incubated in an incubator at 37° C., 5% CO2 for 72 hours (note: column 11 was used as MAX well with cells and no compounds; and column 12 was used as MIN well with no cells and no compounds). (4) After treating with the compounds of the present invention for 72 hours, the cell viability detection reagents in the above CellTiter-Glo® assay kit were added to the 96-well plate at 50 μL per well according to the instructions. The plate was shaken on a shaker in the dark for 5 to 10 minutes, and then the cell activity was determined by a multifunctional microplate reader. Finally, the growth inhibition of the compounds of the present invention on the cells was plotted by XLFIT 5.3 software, and the IC50 values of the compounds of the present invention were calculated.

In assay [5] the test system is Escherichia coli (carbapenem-resistant clinical isolate; ATCC25922). The experiment in a line: MIC by micro broth dilution (CLSI), Escherichia coli. As to conditions: Escherichia coli; for MIC50 / MIC90: ATCC25922, Clinical strain; for MIC50: read-out: MIC50; for MIC90: read-out: MIC90; for MIC: Standard strain ATCC25922, read-out: MIC. The method, boiled down:
(§2)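 CLSI broth microdilution in cation-adjusted Mueller-Hinton broth, compounds in DMSO at 128 to 0.06 mg/L. Inoculum 10^5 CFU/mL from 0.5 McFarland suspensions diluted 100-fold; 35±2 °C, 20 h in air. Clinical isolates plus ATCC/NCTC quality-control strains; interpretation per CLSI 2019 M100.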

Assay [6] relates to Acinetobacter baumannii (carbapenem-resistant clinical isolates; ATCC19606). In words: MIC by micro broth dilution (CLSI), Acinetobacter baumannii. As to conditions: for MIC50 / MIC90: ATCC19606, Clinical strain; for MIC50 / MIC90 / MIC: Acinetobacter baumannii; for MIC50: read-out: MIC50; for MIC90: read-out: MIC90; for MIC: Standard strain ATCC19606, read-out: MIC. The method, boiled down:
as §2

Assay [7] relates to Staphylococcus aureus (methicillin-resistant and sensitive clinical isolates; ATCC29213). In words: MIC by micro broth dilution (CLSI), Staphylococcus aureus. As to conditions: for MIC50 / MIC90: Clinical strain; for MIC50: read-out: MIC50; for MIC90: read-out: MIC90; for MIC: Standard strain ATCC29213, read-out: MIC. The method, boiled down:
as §2

Values after ≈ are worked out from the molar mass of the structure shown. A value given as a limit tells only on which side of the number the result lay.

`CC1(C)CCN(c2ccnc3c(O)c([N+](=O)[O-])cc(Cl)c23)CC1` [Example 41, 5-Chloro-4-(4,4-dimethylpiperidin-1-yl)-7-nitroquinolin-8-ol]: the half-maximal inhibitory concentration (IC50) in assay [1] turned out to be 2020 nM; in assay [2], 1030 nM; in assay [3] it was 480 nM; in assay [4] it was 2020 nM. The figures for the MIC50 in assay [5], in assay [6] and in assay [7] were over 128 µg/mL, over 128 µg/mL and 32 µg/mL (≈ 95.3 µM), respectively. In addition, the MIC90 in assay [5] was over 128 µg/mL; in assay [6] it was over 128 µg/mL; in assay [7], 32 µg/mL (≈ 95.3 µM). The MIC in assay [5] was over 128 µg/mL; in assay [6], over 128 µg/mL; in assay [7] it was 32 µg/mL (≈ 95.3 µM).

As to `O=[N+]([O-])c1cc(F)c2c(Cl)ccnc2c1O` [Example 68, 4-Chloro-5-fluoro-7-nitroquinolin-8-ol], the concentration for half-maximal inhibition (IC50) in assay [1] is 10000 nM; in assay [2] it was 17500 nM; in assay [3], 5380 nM; in assay [4], 5190 nM. The MIC50 in assay [5] was 8 µg/mL (≈ 33 µM); in assay [6], 4 µg/mL (≈ 16.5 µM); in assay [7] it was 2 µg/mL (≈ 8.24 µM). For the same compound, the MIC90 in assay [5] is 32 µg/mL (≈ 132 µM); in assay [6], 8 µg/mL (≈ 33 µM); in assay [7], 4 µg/mL (≈ 16.5 µM). The MIC in assay [5] amounted to 8 µg/mL (≈ 33 µM); in assay [6] it was 2 µg/mL (≈ 8.24 µM); in assay [7], 4 µg/mL (≈ 16.5 µM). Besides, the “inhibitory effect against Acinetobacter baumannii compared with the reference drug nitroxoline” value in assay [6] (MIC comparison) is “comparable to that of the reference drug nitroxoline”.

As to `O=[N+]([O-])c1cc(Cl)c2c(Oc3ccccc3)ccnc2c1O` [Example 47, 5-Chloro-7-nitro-4-phenoxyquinolin-8-ol], the IC50 was found to be 1590 nM in assay [1], 2380 nM in assay [2], 970 nM in assay [3] and 6070 nM in assay [4]. Moreover, the MIC50 in assay [5] was over 128 µg/mL; in assay [6], over 128 µg/mL; in assay [7], 16 µg/mL (≈ 50.5 µM). Also, the values for the MIC90 in assay [5], in assay [6] and in assay [7] were over 128 µg/mL, over 128 µg/mL and 32 µg/mL (≈ 101 µM), respectively. In addition, the MIC was over 128 µg/mL in assay [5], over 128 µg/mL in assay [6] and 32 µg/mL (≈ 101 µM) in assay [7].

For the compound `COC(=O)N1CCN(c2ccnc3c(O)c([N+](=O)[O-])cc(Cl)c23)CC1` [Example 31, Methyl 4-(5-chloro-8-hydroxy-7-nitroquinolin-4-yl)-piperazine-1-carboxylate], the IC50 in assay [1] is 1630 nM; in assay [2], 940 nM; in assay [3], 960 nM; in assay [4], 460 nM. For the same compound, the MIC50 in assay [5], in assay [6] and in assay [7] was over 128 µg/mL each time. The MIC90 in assay [5], in assay [6] and in assay [7] was over 128 µg/mL throughout. Further, the MIC in assay [5], in assay [6] and in assay [7] was over 128 µg/mL in each case.

`CN(C)C(=O)N1CCN(c2ccnc3c(O)c([N+](=O)[O-])cc(Cl)c23)CC1` [Example 35, 4-(5-Chloro-8-hydroxy-7-nitroquinolin-4-yl)-N,N-dimethylpiperazine-1-carboxamide]: the IC50 is 27000 nM in assay [1], 49700 nM in assay [2], 31200 nM in assay [3] and over 50000 nM in assay [4]. For the same compound, the MIC50 in assay [5], in assay [6] and in assay [7] was over 128 µg/mL in each case. Also, the MIC90 in assay [5], in assay [6] and in assay [7] was over 128 µg/mL throughout. The MIC in assay [5], in assay [6] and in assay [7] was over 128 µg/mL throughout.
